Results reported in patent publication US20240132480A1, “INHIBITORS OF MYCOBACTERIUM TUBERCULOSIS LIPOAMIDE DEHYDROGENASE” (Cornell University, priority 2021, published 2024).
Read-outs that look alike come from different tables or passages of the source.

Legend:
[1] = Microsomal clearance (hLM); settings: human liver microsomes
Mtb Lpd = Mtb Lpd (Mycobacterium tuberculosis (strain ATCC 25618 / H37Rv), UniProt P9WHH9); format: biochemical
[2] = microsomes
[3] = 30 min preincubation, read-out: LPD IC50 (μM) w/ 30 min preincubation

Structure (SMILES) | Human Liver Microsome Stability [1] | IC50 (Mtb Lpd; read-out: LPD IC50) | IC50 (Mtb Lpd; [3]) | Human Liver Microsome Stability [2]
COc1ccc(NC(=O)CN(C)S(=O)(=O)c2cc(C)cc3cn[nH]c23)cc1Cl [Example 1, N-(3-chloro-4-methoxyphenyl)-2-((N,5-dimethyl-1H-indazole)-7-sulfonamido)acetamide] | >768 µL/min/mg |  |  | 
COc1ccc(NC(=O)[C@@H]2CCCN2S(=O)(=O)c2cc(C)cc3cn[nH]c23)cc1Cl [Example 4, (S)—N-(3-chloro-4-methoxyphenyl)-1-((5-methyl-1H-indazol-7-yl)sulfonyl)pyrrolidine-2-carboxamide] | 324 µL/min/mg | 0.39 µM |  | 
Cc1cc(S(=O)(=O)N2CCC[C@H]2C(=O)Nc2ccc(N3CCOCC3)c(Cl)c2)c2[nH]ncc2c1 [Example 5] | 133 µL/min/mg | 0.042 µM |  | 
COc1ccc(NC(=O)CN(C)S(=O)(=O)c2cc(C)cc3cc(C#N)[nH]c23)cn1 [Example 216, 2-((2-cyano-N,5-dimethyl-1H-indole)-7-sulfonamido)-N-(6-methoxypyridin-3-yl)acetamide] |  |  | 0.02 µM | 49 µL/min/mg
CC(=O)Nc1cccc(NC(=O)CN(C)S(=O)(=O)c2cc(C)cc3cc(C#N)[nH]c23)c1 [Example 217] |  |  | 0.028 µM | 177 µL/min/mg
Cc1cc(S(=O)(=O)N(C)CC(=O)NCC#Cc2ccccc2)c2[nH]c(C#N)cc2c1 [Example 218] |  |  | 0.03 µM | 191 µL/min/mg
Cc1cc(S(=O)(=O)N(C)CC(=O)Nc2cccc(N3CCCCC3=O)c2)c2[nH]c(C#N)cc2c1 [Example 219] |  |  | 0.03 µM | 150 µL/min/mg
CCCCNC(=O)CN(C)S(=O)(=O)c1cc(C)cc2cc(C#N)[nH]c12 [Example 223] |  |  | 0.028 µM | 62 µL/min/mg
Cc1cc(S(=O)(=O)N(C)CC(=O)Nc2cc(=O)n3c(n2)CCCC3)c2[nH]c(C#N)cc2c1 [Example 224, 2-((2-cyano-N,5-dimethyl-1H-indole)-7-sulfonamido)-N-(4-oxo-6,7,8,9-tetrahydro-4H-pyrido[1,2-a]pyrimidin-2-yl)acetamide] |  |  | 0.022 µM | 61 µL/min/mg
CN(CC(=O)Nc1ccn(C)c(=O)c1)S(=O)(=O)c1cc(Cl)cc2cc(C#N)[nH]c12 [Example 225] |  |  | 0.035 µM | 11 µL/min/mg
CC#CC(C)(C)NC(=O)CN(C)S(=O)(=O)c1cc(C)cc2cc(C#N)[nH]c12 [Example 229] |  |  | 0.031 µM | 160 µL/min/mg
